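All cell lines were grown in 96-well plates and treated with compound for 48 hours. Definition used: TGI = concentration required for complete inhibition of growth.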
How the values were obtained:
Assay in all cases: NCI-60 cell line screen, 48 h
HL-60(TB) leukemia = test system: HL-60(TB) leukemia
786-0 renal = test system: 786-0 renal
OVCAR-3 ovarian = test system: OVCAR-3 ovarian
OVCAR-5 ovarian = test system: OVCAR-5 ovarian
SF-268 CNS = test system: SF-268 CNS
SK-MEL-28 melanoma = test system: SK-MEL-28 melanoma
HS 578T breast = test system: HS 578T breast
HCT-116 colon = test system: HCT-116 colon
M14 melanoma = test system: M14 melanoma
TK-10 renal = test system: TK-10 renal
DU-145 prostate = test system: DU-145 prostate
SF-295 CNS = test system: SF-295 CNS
IGROV1 ovarian = test system: IGROV1 ovarian
U251 CNS = test system: U251 CNS
UO-31 renal = test system: UO-31 renal
MDA-N = test system: MDA-N
UACC-62 melanoma = test system: UACC-62 melanoma
NCI-H226 lung = test system: NCI-H226 lung
MALME-3M melanoma = test system: MALME-3M melanoma
KM12 colon = test system: KM12 colon
SF-539 CNS = test system: SF-539 CNS
SW-620 colon = test system: SW-620 colon
SNB-75 CNS = test system: SNB-75 CNS
K-562 leukemia = test system: K-562 leukemia
HCC-2998 colon = test system: HCC-2998 colon
CAKI-1 renal = test system: CAKI-1 renal
MOLT-4 leukemia = test system: MOLT-4 leukemia
HCT-15 colon = test system: HCT-15 colon
SNB-19 CNS = test system: SNB-19 CNS
T-47D breast = test system: T-47D breast
MDA-MB-231 breast = test system: MDA-MB-231 breast
OVCAR-4 ovarian = test system: OVCAR-4 ovarian
SN12C renal = test system: SN12C renal
NCI-H23 lung = test system: NCI-H23 lung
SK-MEL-5 melanoma = test system: SK-MEL-5 melanoma
A549 NSCLC = test system: A549 NSCLC
MCF7 breast = test system: MCF7 breast
HOP-62 NSCLC = test system: HOP-62 NSCLC
HOP-92 NSCLC = test system: HOP-92 NSCLC
HT29 colon = test system: HT29 colon
PC-3 prostate = test system: PC-3 prostate
CCRF-CEM leukemia = test system: CCRF-CEM leukemia
LOX IMVI melanoma = test system: LOX IMVI melanoma
COLO 205 colon = test system: COLO 205 colon
A498 renal = test system: A498 renal
OVCAR-8 ovarian = test system: OVCAR-8 ovarian
SK-MEL-2 melanoma = test system: SK-MEL-2 melanoma
NCI-H460 lung = test system: NCI-H460 lung
NCI-H522 lung = test system: NCI-H522 lung
SR leukemia = test system: SR leukemia
BT-549 breast = test system: BT-549 breast
RXF 393 renal = test system: RXF 393 renal
UACC-257 melanoma = test system: UACC-257 melanoma
EKVX NSCLC = test system: EKVX NSCLC
SK-OV-3 ovarian = test system: SK-OV-3 ovarian
MDA-MB-435 = test system: MDA-MB-435
ACHN renal = test system: ACHN renal
NCI/ADR-RES ovarian = test system: NCI/ADR-RES ovarian
RPMI-8226 leukemia = test system: RPMI-8226 leukemia

Measured: TGI

NNC(=O)CCC(NS(=O)(=O)c1ccc(Cl)cc1)C(=O)NN (stereo unspecified)
> 100 µM: HL-60(TB) leukemia | 786-0 renal | OVCAR-3 ovarian | OVCAR-5 ovarian | SF-268 CNS | SK-MEL-28 melanoma | HS 578T breast | HCT-116 colon | M14 melanoma | TK-10 renal | DU-145 prostate | SF-295 CNS | IGROV1 ovarian | U251 CNS | UO-31 renal | MDA-N | UACC-62 melanoma | NCI-H226 lung | MALME-3M melanoma | KM12 colon | SF-539 CNS | SW-620 colon | SNB-75 CNS | K-562 leukemia | HCC-2998 colon | CAKI-1 renal | MOLT-4 leukemia | HCT-15 colon | SNB-19 CNS | T-47D breast | MDA-MB-231 breast | OVCAR-4 ovarian | SN12C renal | NCI-H23 lung | SK-MEL-5 melanoma | A549 NSCLC | MCF7 breast | HOP-62 NSCLC | HOP-92 NSCLC | HT29 colon | PC-3 prostate | CCRF-CEM leukemia | LOX IMVI melanoma | COLO 205 colon | A498 renal | OVCAR-8 ovarian | SK-MEL-2 melanoma | NCI-H460 lung | NCI-H522 lung | SR leukemia | BT-549 breast | RXF 393 renal | UACC-257 melanoma | EKVX NSCLC | SK-OV-3 ovarian | MDA-MB-435 | ACHN renal | NCI/ADR-RES ovarian

C[C@]12CC[C@H](O)CC1=CC[C@@H]1[C@@H]2CC[C@]2(C)c3nc(Cl)ccc3C[C@@H]12
> 50.4 µM: CCRF-CEM leukemia
> 100 µM: HL-60(TB) leukemia | 786-0 renal | OVCAR-5 ovarian | SK-MEL-28 melanoma | HS 578T breast | HCT-116 colon | M14 melanoma | TK-10 renal | DU-145 prostate | SF-295 CNS | IGROV1 ovarian | U251 CNS | MDA-N | UACC-62 melanoma | NCI-H226 lung | MALME-3M melanoma | KM12 colon | SW-620 colon | K-562 leukemia | HCC-2998 colon | CAKI-1 renal | MOLT-4 leukemia | SNB-19 CNS | T-47D breast | MDA-MB-231 breast | OVCAR-4 ovarian | NCI-H23 lung | SK-MEL-5 melanoma | MCF7 breast | HOP-92 NSCLC | RPMI-8226 leukemia | HT29 colon | PC-3 prostate | LOX IMVI melanoma | COLO 205 colon | A498 renal | OVCAR-8 ovarian | SK-MEL-2 melanoma | NCI-H460 lung | NCI-H522 lung | SR leukemia | BT-549 breast | RXF 393 renal | UACC-257 melanoma | MDA-MB-435 | ACHN renal | NCI/ADR-RES ovarian
37.2 µM: SF-539 CNS
99.2 µM: SK-OV-3 ovarian
> 67.6 µM: HOP-62 NSCLC
> 71.6 µM: EKVX NSCLC
> 94.8 µM: SN12C renal
> 75.7 µM: SF-268 CNS
> 81.3 µM: HCT-15 colon
96.9 µM: A549 NSCLC
> 73.2 µM: OVCAR-3 ovarian
46.8 µM: SNB-75 CNS
